Each molecule was assayed against aldosterone synthase (CYP11B2) (Macaca fascicularis, UniProt A0A2K5UPL9) (assay: aldosterone synthase inhibition assay). Details: cynomolgus adrenal gland mitochondria, 2 μM corticosterone, aldosterone quantified by mass spectrometry.
Format: biochemical, cynomolgus monkey
How it was run: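 Cynomolgus adrenal mitochondria ([…]) used as CYP11B2 source with 2 μM corticosterone in 100 mM potassium phosphate pH 7.4, 1% DMSO; reaction started with 1 mM NADPH, run 60-90 min at 37° C. Aldosterone measured by mass spectrometry; IC50 from 4-parameter logistic fit, no-NADPH blank as 0%.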

Sequence of aldosterone synthase (CYP11B2) (A0A2K5UPL9 1-503): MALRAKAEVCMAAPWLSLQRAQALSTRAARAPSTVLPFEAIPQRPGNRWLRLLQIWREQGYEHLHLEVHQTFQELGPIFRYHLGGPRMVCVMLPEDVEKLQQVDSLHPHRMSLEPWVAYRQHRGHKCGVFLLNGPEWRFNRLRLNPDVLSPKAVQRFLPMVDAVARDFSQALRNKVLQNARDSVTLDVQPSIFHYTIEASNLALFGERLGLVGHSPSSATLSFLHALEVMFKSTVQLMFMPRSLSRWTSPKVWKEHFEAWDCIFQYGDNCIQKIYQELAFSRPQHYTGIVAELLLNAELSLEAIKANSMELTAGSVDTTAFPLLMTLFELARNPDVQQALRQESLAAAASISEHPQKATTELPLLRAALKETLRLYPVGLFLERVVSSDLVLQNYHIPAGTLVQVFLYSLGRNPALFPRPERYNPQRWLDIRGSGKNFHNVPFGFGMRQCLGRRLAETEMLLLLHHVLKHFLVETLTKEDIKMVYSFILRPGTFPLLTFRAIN

Row | IC50 | SMILES
1 | 115 nM | Cc1n[nH]c2ccc(-c3cncc4c3COCC4O)cc12 (single isomer, unassigned) [Compound 10, 8-(3-Methyl-1H-indazol-5-yl)-3,4-dihydro-1H-pyrano[4,3-c]pyridin-4-ol]
2 | 11.2 nM | CCC(=O)NC1COCc2c(-c3ccc4c(Cl)n[nH]c4c3)cncc21 (single isomer, unassigned) [Compound 128, N-[8-(3-Chloro-1H-indazol-6-yl)-3,4-dihydro-1H-pyrano[4,3-c]pyridin-4-yl]-propionamide]
3 | 42 nM | N#Cc1ccc(-c2cncc3c2COCC3O)cc1 (single isomer, unassigned) [Compound 4, 4-(4-Hydroxy-3,4-dihydro-1H-pyrano[4,3-c]pyridin-8-yl)-benzonitrile]
4 | 40.5 nM | OC1COCc2cncc(-c3ccc4cnccc4c3)c21 (single isomer, unassigned) [Compound 168, 5-Isoquinolin-6-yl-3,4-dihydro-1H-pyrano[3,4-c]pyridin-4-ol]
5 | 470 nM | CCS(=O)(=O)NC1COCc2c(-c3ccc4c(c3)C(F)(F)CCO4)cncc21 (single isomer, unassigned) [Compound 144, Ethanesulfonic acid [8-(4,4-difluoro-chroman-6-yl)-3,4-dihydro-1H-pyrano[4,3-c]pyridin-4-yl]-amide]
6 | 8 nM | Cn1ncc2ccc(-c3cncc4c3COC3(CC3)C4O)cc21 (single isomer, unassigned) [Compound 17, 8-(1-methylindazol-6-yl)spiro[1,4-dihydropyrano[4,3-c]pyridine-3,1′-cyclopropane]-4-ol]
7 | 599 nM | Cn1ncc2c(C#N)cc(-c3cncc4c3COCC4O)cc21 (single isomer, unassigned) [Compound 106, 6-(4-Hydroxy-3,4-dihydro-1H-pyrano[4,3-c]pyridin-8-yl)-1-methyl-1H-indazole-4-carbonitrile]
8 | 15.7 nM | Cn1nnc2ccc(-c3cncc4c3COCC4O)cc21 (single isomer, unassigned) [Compound 14, 8-(3-Methyl-3H-benzotriazol-5-yl)-3,4-dihydro-1H-pyrano[4,3-c]pyridin-4-ol]
9 | 6.7 nM | OC1COCc2c(-c3ccc4c(Cl)n[nH]c4c3)cncc21 (single isomer, unassigned) [Compound 127, 8-(3-Chloro-1H-indazol-6-yl)-3,4-dihydro-1H-pyrano[4,3-c]pyridin-4-ol]
10 | 40.9 nM | OC1c2cncc(-c3ccc4c(c3)COCCO4)c2COC12CC2 (single isomer, unassigned) [Compound 112, 8-(3,5-dihydro-2H-1,4-benzo[e][1,4]dioxepin-7-yl)spiro[1,4-dihydropyrano[4,3-c]pyridine-3,1′-cyclopropane]-4-ol]
11 | 738 nM | O=C1NCCOc2cc(-c3cncc4c3COCC4O)ccc21 (single isomer, unassigned) [Compound 145, 8-(4-Hydroxy-3,4-dihydro-1H-pyrano[4,3-c]pyridin-8-yl)-3,4-dihydro-2H-benzo[f][1,4]oxazepin-5-one]
12 | 194 nM | O=C1CCOc2cc(-c3cncc4c3COCC4O)ccc21 (single isomer, unassigned) [Compound 122, 7-(4-Hydroxy-3,4-dihydro-1H-pyrano[4,3-c]pyridin-8-yl)-chroman-4-one]
13 | 480 nM | OC1COCc2c(-c3ccc4cn[nH]c4c3)cncc21 (single isomer, unassigned) [Compound 24, 8-(1H-Indazol-6-yl)-3,4-dihydro-1H-pyrano[4,3-c]pyridin-4-ol]
14 | 55 nM | OC1COCc2c(-c3ccccc3)cncc21 (single isomer, unassigned) [Compound 5, 8-Phenyl-3,4-dihydro-1H-pyrano[4,3-c]pyridin-4-ol]
15 | 45.9 nM | CCS(=O)(=O)NC1COCc2c(-c3ccc4c(Cl)n[nH]c4c3)cncc21 (single isomer, unassigned) [Compound 129, Ethanesulfonic acid [8-(3-chloro-1H-indazol-6-yl)-3,4-dihydro-1H-pyrano[4,3-c]pyridin-4-yl]-amide]
16 | 22.8 nM | O=c1ccc2cc(-c3cncc4c3COCC4O)ccc2o1 (single isomer, unassigned) [Compound 125, 6-(4-Hydroxy-3,4-dihydro-1H-pyrano[4,3-c]pyridin-8-yl)-chromen-2-one]

Row | IC50 | SMILES
17 | 7.8 nM | Cn1ncc2ccc(-c3cncc4c3COCC4(C)O)cc21 (single isomer, unassigned) [Compound 170, 4-Methyl-8-(1-methyl-1H-indazol-6-yl)-3,4-dihydro-1H-pyrano[4,3-c]pyridin-4-ol]
18 | 18 nM | CN(C)C1COCc2c(-c3ccc4cnn(C)c4c3)cncc21 (single isomer, unassigned) [Compound 185, Dimethyl-[8-(1-methyl-1H-indazol-6-yl)-3,4-dihydro-1H-pyrano[4,3-c]pyridin-4-yl]-amine]
19 | 12000 nM | CC1(O)CCOc2ccc(-c3cncc4c3COCC4O)cc21 (single isomer, unassigned) [Compound 140, 8-(4-Hydroxy-4-methyl-chroman-6-yl)-3,4-dihydro-1H-pyrano[4,3-c]pyridin-4-ol]
20 | 41.5 nM | NC(=O)N1CCCc2cc(-c3cncc4c3COCC4O)cnc21 (single isomer, unassigned) [Compound 164, 6-(4-Hydroxy-3,4-dihydro-1H-pyrano[4,3-c]pyridin-8-yl)-3,4-dihydro-2H-[1,8]naphthyridine-1-carboxylic acid amide]
21 | 46 nM | CCS(=O)(=O)NC1COCc2c(-c3ccc4c(c3)CCC4=O)cncc21 (single isomer, unassigned) [Compound 157, Ethanesulfonic acid [8-(1-oxo-indan-5-yl)-3,4-dihydro-1H-pyrano[4,3-c]pyridin-4-yl]-amide]
22 | 339 nM | OC1COCc2c(-c3ccc4c(c3)C(F)(F)CCO4)cncc21 (single isomer, unassigned) [Compound 141, 8-(4,4-Difluoro-chroman-6-yl)-3,4-dihydro-1H-pyrano[4,3-c]pyridin-4-ol]
23 | 205 nM | Cc1nnc2ccc(-c3cncc4c3COCC4O)cn12 (single isomer, unassigned) [Compound 97, 8-(3-Methyl-[1,2,4]triazolo[4,3-a]pyridin-6-yl)-3,4-dihydro-1H-pyrano[4,3-c]pyridin-4-ol]
24 | 75.5 nM | CCC(=O)NC1COCc2c(-c3ccc4nnn(C)c4c3)cncc21 (single isomer, unassigned) [Compound 60, N-[8-(3-Methyl-3H-benzotriazol-5-yl)-3,4-dihydro-1H-pyrano[4,3-c]pyridin-4-yl]-propionamide]
25 | 5.7 nM | Cn1ncc2ccc(-c3cncc4c3COCC4C#N)cc21 (stereo not shown) [Compound 9, 8-(1-Methyl-1H-indazol-6-yl)-3,4-dihydro-1H-pyrano[4,3-c]pyridine-4-carbonitrile]
26 | 12.9 nM | Cn1ncc2c1C=C(c1cncc3c1COCC3O)CC2 (single isomer, unassigned) [Compound 187, 8-(1-Methyl-4,5-dihydro-1H-indazol-6-yl)-3,4-dihydro-1H-pyrano[4,3-c]pyridin-4-ol]
27 | 340 nM | Cn1ncc2c1CC(c1cncc3c1COCC3O)CC2 (single isomer, unassigned) [Compound 190, 8-(1-Methyl-4,5,6,7-tetrahydro-1H-indazol-6-yl)-3,4-dihydro-1H-pyrano[4,3-c]pyridin-4-ol]
28 | 1200 nM | Cn1cc2ccc(-c3cncc4c3COCC4O)cc2n1 (single isomer, unassigned) [Compound 50, 8-(2-Methyl-2H-indazol-6-yl)-3,4-dihydro-1H-pyrano[4,3-c]pyridin-4-ol]
29 | 10 nM | O=C1CCc2cc(-c3cncc4c3COCC4O)ccc21 (single isomer, unassigned) [Compound 103, 5-(4-Hydroxy-3,4-dihydro-1H-pyrano[4,3-c]pyridin-8-yl)-indan-1-one]
30 | 271 nM | Cc1nnc2ccc(-c3cncc4c3COC3(CC3)C4O)cn12 (single isomer, unassigned) [Compound 93, 8-(3-methyl-[1,2,4]triazolo[4,3-a]pyridin-6-yl)spiro[1,4-dihydropyrano[4,3-c]pyridine-3,1′-cyclopropane]-4-ol]
31 | 1300 nM | OC1COCc2c(-c3ccc4nncn4c3)cncc21 (single isomer, unassigned) [Compound 98, 8-[1,2,4]Triazolo[4,3-a]pyridin-6-yl-3,4-dihydro-1H-pyrano[4,3-c]pyridin-4-ol]

Source: patent US9890171B2, “Aldosterone synthase inhibitors” (Boehringer Ingelheim International GmbH, priority 2014, dated 2018)
